Test results published in patent publication US12502386B2, “Nitrogen-containing heterocyclic compound and use thereof” (SHANGHAI SHIJIANG BIOTECHNOLOGY CO., LTD, priority 2022, dated 2025).

What was measured:
Type in all cases: cell-based, human
[1] = system: Con-NCI-H82 cell; test: CellTiter-Glo cell viability, Con-NCI-H82 cell (empty-vector control); conditions: Homo sapiens, NCI-H82, NCI-H82 transfected with empty virus vector (control), intracellular ATP, read-out: inhibitory effect on Con-NCI-H82 (IC50)
[2] = system: ov-NNMT NCI-H82 cell; test: CellTiter-Glo cell viability, ov-NNMT NCI-H82 cell (NNMT overexpressed); conditions: Homo sapiens, NCI-H82, NCI-H82 overexpressing NNMT protein, intracellular ATP, read-out: inhibitory effect on OV-NNMT NCI-H82 (IC50)
[3] = system: sh-DNMT1 NCI-H82 cell; test: CellTiter-Glo cell viability, sh-DNMT1 NCI-H82 cell (DNMT1 knocked down); conditions: Homo sapiens, NCI-H82, NCI-H82 with DNMT1 knocked down by shRNA, intracellular ATP, read-out: inhibitory effect on sh-DNMT1 NCI-H82 (IC50)

IC50 [1] [µM]	IC50 [2] [µM]	IC50 [3] [µM]	SMILES
0.53	1.32	2.54	COc1ccc2c(c1OC)CN1CCc3cc4c(cc3C1=C2Cc1ccc(C(C)C)cc1)OCO4 [AB31870]
2.88	6.32	6.08	CCCCC1c2c(c(Br)cc(OC)c2OC)C=C2c3cc4c(cc3CCN21)OCO4 (stereo not drawn) [AB31873]
8.23	7.98	8.46	COc1ccc2c(c1OCCCBr)CN1CCc3cc4c(cc3C1C2)OCO4 (stereo not drawn) [AB31878]
0.99	3.32	3.86	CCCCCCC1c2c(ccc(OC)c2OC)C=C2c3cc4c(cc3CCN21)OCCO4 (stereo not drawn) [AB31880]
2.01	4.04	3.98	COc1ccc2c(c1OCCCCOc1ccccc1)C(C)N1CCc3cc4c(cc3C1=C2)OCO4 (stereo not drawn) [AB31881]
2.83	5.78	5.69	COc1ccc2c(c1OCCCBr)C(C)N1CCc3cc4c(cc3C1=C2)OCO4 (stereo not drawn) [AB31887]
2.26	4.64	6.12	COc1ccc2c(c1OCCCCCCCl)C(C)N1CCc3cc4c(cc3C1=C2)OCO4 (stereo not drawn) [AB31888]
1.14	3.24	4.68	COc1ccc2c(c1NCCc1ccccc1)C(C)N1CCc3cc4c(cc3C1=C2)OCO4 (stereo not drawn) [AB31895]
1.31	4.53	3.98	COc1ccc2c(c1OC(=O)CC13CC4CC(CC(C4)C1)C3)C(C)N1CCc3cc4c(cc3C1=C2)OCO4 (stereo not drawn) [AB31896]
1.43	5.32	4.96	COc1ccc2c(c1OCCCCCCBr)C(C)N1CCc3cc4c(cc3C1=C2)OCO4 (stereo not drawn) [AB31897]
3.69	8.64	12.1	COc1ccc2c(c1OC)C(C)N1CCc3cc4c(cc3C1=C2)OCCO4 (stereo not drawn) [AB31898]
0.88	2.43	3.45	COc1ccc2c(c1OC/C=C(\C)CCC=C(C)C)C(C)N1CCc3cc4c(cc3C1=C2)OCO4 (stereo not drawn) [AB35402]
0.74	2.73	3.44	COc1ccc2c(c1OCCCCCCNC(=O)OC(C)(C)C)C(C(Cl)(Cl)Cl)N1CCc3cc4c(cc3C1=C2)OCO4 (stereo not drawn) [AB35407]
1.24	2.51	4.34	COc1ccc2c(c1OC)C(C)N1CCc3cc4c(cc3C1=C2CCCc1ccccc1)OCO4 (stereo not drawn) [AB35411]
5.48	14.2	20.3	CC1c2c(ccc3c2OCO3)C=C2c3cc4c(cc3CCN21)OCO4 (stereo not drawn) [AB35413]
1.14	3.42	5.48	COc1ccc2c(c1OCCCCCCNC(=O)OC(C)(C)C)C(C)N1CCc3cc4c(cc3C1=C2)OCO4 (stereo not drawn) [AB35415]
2.31	5.23	6.35	COc1ccc2c(c1OCCNC(=O)OC(C)(C)C)C(C(Cl)(Cl)Cl)N1CCc3cc4c(cc3C1=C2)OCO4 (stereo not drawn) [AB35416]
0.53	1.26	2.25	CCCCCC1=C2c3cc4c(cc3CCN2C(C(Cl)(Cl)Cl)c2c1ccc(OC)c2OC)OCO4 (stereo not drawn) [AB35418]
4.99	12.5	18.2	COc1ccc2c(c1OCCN1CCCCC1)C(C(Cl)(Cl)Cl)N1CCc3cc4c(cc3C1=C2)OCO4 (stereo not drawn) [AB35420]
5.77	12.4	21.2	ClC(Cl)(Cl)C1c2c(ccc3c2OCO3)C=C2c3cc4c(cc3CCN21)OCO4 (stereo not drawn) [AB35421]
2.32	5.48	4.94	CCCCCC1=C2c3cc4c(cc3CCN2C(C)c2c1ccc(OC)c2OC)OCO4 (stereo not drawn) [AB35422]
2.16	4.96	4.36	COc1ccc2c(c1OCCCCNC(=O)OC(C)(C)C)C(C(Cl)(Cl)Cl)N1CCc3cc4c(cc3C1=C2)OCO4 (stereo not drawn) [AB35423]
5.02	11.2	10.8	COc1ccc2c(c1OCCNC(=O)OC(C)(C)C)C(C)N1CCc3cc4c(cc3C1=C2)OCO4 (stereo not drawn) [AB35424]
0.46	1.56	2.12	CCCCCCC1c2c(ccc3c2OCO3)C=C2c3cc4c(cc3CCN21)OCO4 (stereo not drawn) [AB35426]
0.56	1.82	3.24	CC1c2c(ccc3c2OCO3)C(CCCc2ccccc2)=C2c3cc4c(cc3CCN21)OCO4 (stereo not drawn) [AB35427]
4.23	10.2	15.4	ClC(Cl)(Cl)C1c2c(ccc3c2OCO3)C(CCCc2ccccc2)=C2c3cc4c(cc3CCN21)OCO4 (stereo not drawn) [AB35428]
0.72	2.12	3.22	COc1ccc2c(c1OC/C=C(\C)CCC=C(C)C)C(C1CCCC1)N1CCc3cc4c(cc3C1=C2)OCO4 (stereo not drawn) [AB35438]
0.98	2.56	4.12	COc1ccc2c(c1OCCCCCCCl)C(C1CCCC1)N1CCc3cc4c(cc3C1=C2)OCO4 (stereo not drawn) [AB35440]

IC50 [1] [µM]	IC50 [2] [µM]	IC50 [3] [µM]	SMILES
9.22	8.38	9.32	COc1ccc2c(c1OCCCN1CCCCC1)C(C)N1CCc3cc4c(cc3C1=C2)OCO4 (stereo not drawn) [AB35442]
20.6	18.1	20.9	COc1ccc2c(c1OCCN1CCCCC1)C(C)N1CCc3cc4c(cc3C1=C2)OCO4 (stereo not drawn) [AB35443]
1.15	4.21	5.28	COc1ccc2c(c1OC)C(C(Cl)(Cl)Cl)N1CCc3cc4c(cc3C1=C2CCc1ccccc1)OCO4 (stereo not drawn) [AB35444]
5.55	13.4	16.4	CCCCN1CCN(c2c(OC)ccc3c2C(C(Cl)(Cl)Cl)N2CCc4cc5c(cc4C2=C3)OCO5)CC1 (stereo not drawn) [AB35445]
18.4	16.3	17.9	COc1ccc2c(c1OCCN(C)C)C(C(Cl)(Cl)Cl)N1CCc3cc4c(cc3C1=C2)OCO4 (stereo not drawn) [AB35446]
26.2	25.7	24.3	COc1ccc2c(c1OC)C(C(Cl)(Cl)Cl)N1CCc3cc4c(cc3C1=C2Cc1ccccn1)OCO4 (stereo not drawn) [AB35447]
1.34	2.98	2.88	COc1ccc2c(c1OC)C(C1CCCC1)N1CCc3cc4c(cc3C1=C2CCc1ccccc1)OCO4 (stereo not drawn) [AB35448]
0.23	1.32	2.08	COc1ccc2c(c1N1CCC(C)CC1)C(C(Cl)(Cl)Cl)N1CCc3cc4c(cc3C1=C2)OCO4 (stereo not drawn) [AB35453]
1.02	3.25	4.98	COc1ccc2c(c1OCCCCOc1ccccc1)C(C1CCCC1)N1CCc3cc4c(cc3C1=C2)OCO4 (stereo not drawn) [AB35454]
1.11	3.33	3.12	COc1ccc2c(c1OCCCCCCNC(=O)OC(C)(C)C)C(C1CCCC1)N1CCc3cc4c(cc3C1=C2)OCO4 (stereo not drawn) [AB35455]
2.36	6.72	8.42	COc1ccc2c(c1OCCCCl)C(C)N1CCc3cc4c(cc3C1=C2)OCO4 (stereo not drawn) [AB35456]
0.96	2.56	2.33	COc1ccc2c(c1NCCc1ccccc1)C(C1CCCC1)N1CCc3cc4c(cc3C1=C2)OCO4 (stereo not drawn) [AB35457]
1.56	4.12	5.32	COc1ccc2c(c1OCCCCCCBr)C(C1CCCC1)N1CCc3cc4c(cc3C1=C2)OCO4 (stereo not drawn) [AB35458]
4.97	12.3	16.5	COc1ccc2c(c1OC(=O)CC13CC4CC(CC(C4)C1)C3)C(C1CCCC1)N1CCc3cc4c(cc3C1=C2)OCO4 (stereo not drawn) [AB35459]
0.66	2.02	2.56	COc1ccc2c(c1OC)C(C1CCCC1)N1CCc3cc4c(cc3C1=C2Cc1ccc(C(C)C)cc1)OCO4 (stereo not drawn) [AB35460]
2.69	9.32	8.84	COc1ccc2c(c1N1CCC(NC(=O)OC(C)(C)C)CC1)C(C(Cl)(Cl)Cl)N1CCc3cc4c(cc3C1=C2)OCO4 (stereo not drawn) [AB35465]
1.01	3.56	4.48	COc1ccc2c(c1OCCCBr)C(C(Cl)(Cl)Cl)N1CCc3cc4c(cc3C1=C2)OCO4 (stereo not drawn) [AB35466]
5.64	13.3	15.4	C1=C2c3cc4c(cc3CCN2C(C2CCCC2)c2cc3c(cc21)OCO3)OCO4 (stereo not drawn) [AB35467]
0.82	3.12	4.32	COc1ccc2c(c1OC)C(C)N1CCc3cc4c(cc3C1=C2CCCCc1ccccc1)OCO4 (stereo not drawn) [AB35468]
0.79	3.52	5.32	COc1ccc2c(c1OC)C(C(Cl)(Cl)Cl)N1CCc3cc4c(cc3C1=C2CCCCc1ccccc1)OCO4 (stereo not drawn) [AB35469]
1.29	4.12	4.02	COc1ccc2c(c1OCCCCCCCl)C(C(Cl)(Cl)Cl)N1CCc3cc4c(cc3C1=C2)OCO4 (stereo not drawn) [AB35475]
1.23	4.32	4.02	COc1ccc2c(c1OCCCF)C(C(Cl)(Cl)Cl)N1CCc3cc4c(cc3C1=C2)OCO4 (stereo not drawn) [AB35478]
0.77	3.56	3.32	COc1ccc2c(c1OC)C(C(Cl)(Cl)Cl)N1CCc3cc4c(cc3C1=C2CCCc1ccccc1)OCCO4 (stereo not drawn) [AB35484]
4.55	12.3	16.8	COc1ccc2c(c1OCCCF)C(C)N1CCc3cc4c(cc3C1=C2)OCO4 (stereo not drawn) [AB35485]
0.25	1.34	2.56	COc1ccc2c(c1NCCc1ccccc1)C(C(Cl)(Cl)Cl)N1CCc3cc4c(cc3C1=C2)OCO4 (stereo not drawn) [AB35486]
0.49	1.98	3.23	CCCCCCOc1c(OC)ccc2c1C(C(Cl)(Cl)Cl)N1CCc3cc4c(cc3C1=C2)OCO4 (stereo not drawn) [AB35487]
1.98	7.56	9.32	CCC1=C2c3cc4c(cc3CCN2C(C(Cl)(Cl)Cl)c2c1ccc(OC)c2OC)OCO4 (stereo not drawn) [AB35488]
